Results as given in paper PMC6204753, “Non-native autoinducer analogs capable of modulating the SdiA quorum sensing receptor in Salmonella enterica serovar Typhimurium” (Beilstein Journal of Organic Chemistry, 2018).
Entries after “also recorded” stand apart in the source; their conditions may differ. Like-named read-outs stand apart in the source and are kept apart here. Marks after values point to notes of the source that are not given here.

Experiments:
SdiA [1] = molecular target: T1, SdiA (Salmonella enterica subsp. enterica serovar Typhimurium, UniProt O66040); assay: S. Typhimurium-pJNS25 SdiA reporter, agonism (luminescence); assay type: cell-based; conditions: for EC50: agonism dose–response; for Emax: read-out: activation (%); for fold increase: potency of thiolactone over corresponding lactone (EC50 ratio)
Description: (§1) Biological assays for SdiA activity. Cell-based reporter strains that rely on detecting the transcriptional activity of LuxR-type receptors are commonly used to assess the activity of exogenous ligands. We used the S. Typhimurium-pJNS25 reporter strain constructed by Smith and Ahmer and also used by Janssens et al. to examine SdiA activity. This strain naturally produces SdiA and contains a reporter plasmid with the promoter region for srgE fused to the luxABCDE operon of V. fischeri (see Experimental section for details of all strains and plasmids). SdiA activity is thus reported by the production of luciferase and resulting bioluminescence. We also prepared an SdiA reporter in E. coli (JLD271-pJN105SE-pSC11SE) to examine S. Typhimurium SdiA activity in an alternate background and with a different reporter gene output. […] This reporter construct uses an arabinose inducible promoter to produce S. Typhimurium SdiA and the promoter region for srgE fused to lacZ to report SdiA activity. SdiA activity is then measured using standard β-galactosidase assays. In both reporter strains, signal was normalized to the difference between the positive control (10 μM OOHL) and the negative control (1% DMSO; no compound).
(§2) Salmonella SdiA reporter assay. S. Typhimurium-pJNS25 was grown 16–18 h overnight in LB, diluted 1:100 in fresh LB medium, and then incubated for 6 h at 37 °C with shaking at 200 rpm in the presence of compounds (1% DMSO). […] All compounds were screened at 100 μM and 1 μM in triplicate in agonism and antagonism assays. […] Dose–response analyses were performed by preparing dilutions of compounds in DMSO and testing each concentration in the agonism or antagonism assays. Competition dose–response assays (data in Figure 5) were performed in the same manner as the antagonism assays, except instead of OOHL being added to the subculture, the antagonist being tested was added. Non-linear regression curve fits were generated using GraphPad Prism software (version 6) using variable slope (four parameter) dose–response analysis.

SdiA [2] = molecular target: T1, SdiA; assay: S. Typhimurium-pJNS25 SdiA reporter, competitive antagonism against 10 nM L-OOHL; assay type: cell-based; conditions: for inhibition at 1 µM: read-out: Antagonism 1 μM Inhibition (%); for inhibition at 100 µM: read-out: Antagonism 100 μM Inhibition (%); for IC50: against 10 nM L-OOHL (EC90); for Emax: maximal inhibition, 100% minus lowest % activity in presence of 10 nM L-OOHL (2), read-out: inhibition (%)
Description: as §1, §2

[3] = maximal activity (efficacy) from agonism dose–response, 10 μM OOHL = 100%, DMSO = 0%
[4] = 1 μM compound, average ± STD, change in activity from 10 nM 2 (OOHL)
[5] = 100 μM compound, average ± STD, change in activity from 10 nM 2 (OOHL)
[6] = maximal activation of the antagonists (partial agonism), Table 3

T1 sequence (O66040 entry or part of it): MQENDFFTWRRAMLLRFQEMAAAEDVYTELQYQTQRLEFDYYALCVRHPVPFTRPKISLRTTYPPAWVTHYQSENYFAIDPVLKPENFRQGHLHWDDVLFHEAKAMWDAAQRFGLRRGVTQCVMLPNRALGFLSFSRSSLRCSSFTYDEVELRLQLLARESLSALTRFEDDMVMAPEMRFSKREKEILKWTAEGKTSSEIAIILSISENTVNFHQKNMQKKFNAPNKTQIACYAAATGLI

SMILES	EC50 (SdiA [1]; read-out: EC50) [nM]	Emax (SdiA [1]; [3]) [%]	inhibition at 1 µM (SdiA [2]; [4]) [%]	inhibition at 100 µM (SdiA [2]; [5]) [%]	Emax (SdiA [1]; [6]) [%]	Emax (SdiA [2]) [%]	other results
COc1ccc(CC(=O)N[C@H]2CCSC2=O)cc1 [F12]	38.8	84	-13 ± 10	-21 ± 8	–	–	fold increase (SdiA [1]): 6.49
O=C(COc1ccc(I)cc1)N[C@H]1CCOC1=O [E22]	10.4	108	-5 ± 11	-15 ± 8	–	–	–
CCCCCCCC(=O)OCC(O)CO (racemic) [compound 23, 1-octanoyl-rac-glycerol, reference compound]	–	–	8 ± 14	12 ± 4	–	–	activity in the SdiA reporter assay (in words) (SdiA [1]; S. Typhimurium reporter): no agonism; also recorded: no activity
O=C(Cc1ccc(I)cc1)N[C@H]1CCOC1=O [C10]	–	–	–	–	–	–	EC50 (SdiA [1]): 47.2 nM; Emax (SdiA [1]): 67%; inhibition at 1 µM (SdiA [2]): 28 ± 6%; inhibition at 100 µM (SdiA [2]): 27 ± 13%
COc1ccc(CC(=O)N[C@H]2CCOC2=O)cc1 [C24]	252	–	–	–	–	–	Antagonism 1 μM Inhibition (%) (SdiA [2]; [4]): -11 ± 3%; Antagonism 100 μM Inhibition (%) (SdiA [2]; [5]): 4 ± 16%
CCCCCC(=O)CC(=O)N[C@H]1CCSC1=O [F2]	0.7	119	-19 ± 12	-19 ± 15	–	–	fold increase (SdiA [1]): 1.47^c
CCCCCCCCCCCCCCCC(=O)N[C@H]1CCOC1=O [A6]	–	–	17 ± 12	38 ± 5	20	> 50	IC50 (SdiA [2]): 1750 nM
CCCCCCC(CCCC)C(=O)N[C@H]1CCOC1=O (some centres unmarked) [S2]	–	–	48 ± 3	2 ± 11	63	32	–
O=C(Nc1ccccc1NC(=O)c1cccc(Cl)c1)c1cccc(Cl)c1 [compound 20, reference compound]	–	–	35 ± 18	39 ± 17	47	53	–
CSc1cccc(CC(=O)N[C@H]2CCOC2=O)c1 [E7]	26	91	20 ± 14	12 ± 13	–	–	–
CCCC(=O)N[C@H]1CCOC1=O [A1, reference compound]	578	–	–	–	–	–	activation (%) (SdiA [1]; [3]): 100%; Antagonism 1 μM Inhibition (%) (SdiA [2]; [4]): 7 ± 5%; Antagonism 100 μM Inhibition (%) (SdiA [2]; [5]): -10 ± 11%
O=C(Cc1cccc(I)c1)N[C@H]1CCOC1=O [C11]	20.6	90	15 ± 11	-4 ± 2	–	–	–
Cc1cccc(OCC(=O)N[C@H]2CCOC2=O)c1 [E16]	43.3	100	-2 ± 8	-4 ± 5	–	–	–
O=C(Cc1cccc(Cl)c1)N[C@H]1CCOC1=O [C6]	51.9	95	9 ± 16	-20 ± 6	–	–	–
CCCC(=O)N[C@H]1CCSC1=O [F8]	62.8	91	-5 ± 10	-23 ± 11	–	–	fold increase (SdiA [1]): 9.20
CCCCCCCC(=O)N[C@H]1CCOC1=O [A3]	18.1	–	–	–	–	–	Antagonism 1 μM Inhibition (%) (SdiA [2]; [4]): 10 ± 8%; Antagonism 100 μM Inhibition (%) (SdiA [2]; [5]): 13 ± 14%
CSc1ccc(CCC(=O)N[C@H]2CCOC2=O)cc1 [E34]	–	–	21 ± 15	39 ± 8	66	30	–
CCCCCCCC(=O)N[C@H]1CCSC1=O [F5]	2.28	79	3 ± 6	0	–	–	fold increase (SdiA [1]): 8.12
O=C(Cc1ccccc1Br)N[C@H]1CCOC1=O [C9]	63.5	103	9 ± 8	-48 ± 13	–	–	–
O=C(Cc1ccc(-c2ccccc2)cc1)N[C@H]1CCSC1=O [F13]	–	–	23 ± 4	46 ± 15	59	51	IC50 (SdiA [2]): 2350 nM
O=C(Cc1ccc(Br)cc1)N[C@@H]1CCOC1=O [B4]	–	–	41 ± 15	16 ± 11	52	50	–
CCCCCCCC(=O)CC(=O)N[C@H]1CCOC1=O [A7]	26.6	85	-4 ± 19	-2 ± 10	–	–	–
CCCCCCCCCCCC(=O)N[C@H]1CCOC1=O [A5]	–	–	17 ± 10	43 ± 4	57	> 50	–
